What all share (format): cell-based
For test [1], the target named is T1, Human GPR40 (Homo sapiens (Human), UniProt O14842). As to the kind of experiment: Inositol Phosphate Turnover (IP1) Assay 2, HEK cells stably expressing human GPR40, CisBio IP-One kit. The note with it: HEK cells stably expressing human GPR40, 384-well. The protocol:
(§1) Human and mouse GPR40 stable cell-lines were generated in CHO cells stably expressing NFAT BLA (Beta-lactamase). A human GPR40 stable cell-line was generated in HEK cells stably expressing the aequorin expressing reporter. The expression plasmids were transfected using lipofectamine (Life Technologies) following manufacturer's instructions. Stable cell-lines were generated following drug selection.
The assay was performed in 384-well format. HEK cells stably expressing human GPR40 were plated at 15,000 cells per well in growth medium (DMEM/10% fetal calf serum). Cell plates were then incubated 16 hours at 37 degrees in a 5% CO2 incubator.
Measurement of Inositol Phosphate Turnover (IP1) was performed using the CisBio IP-One kit (Part number 62IPAPEB). After the 16 hour incubation, the cells were washed with HEPES buffer and 10 ul of stimulation buffer (prepared as described in the kit) was added to each well. In a separate plate, compounds were diluted in DMSO (400-fold over the final concentration in the assay well) and 25 nl was acoustically transferred to the appropriate well in the assay cell plate.
The plates were then incubated for 60 minutes at 37 degrees. 10 ul of detection buffer (also prepared as described in the IP-One kit) was added to each well and the plates were incubated for 60 minutes in the dark. The plates were then read in a Perkin Elmer EnVision or equivalent reader able to measure FRET. Fluorescent ratio of emission at 665 and 620 nm was then converted to IP1 concentration by back calculating from an IP1 standard curve prepared at the time of the assay.

For test [2], the target named is T1, Human GPR40. As to the kind of experiment: Inositol Phosphate Turnover (IP1) Assay 1, HEK cells stably expressing human GPR40, 3H-inositol SPA. The conditions noted are these: HEK cells stably expressing human GPR40, 96-well. Summed up: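 HEK cells stably expressing human GPR40, labelled 18 h with 3H-myo-inositol in inositol-free medium with 0.4% human or mouse albumin. LiCl added 20 min at 37 degrees, then compound 60 min at 37 degrees; formic acid lysates counted by YSi SPA beads for inositol phosphates.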

The target in test [3] is T1, Human GPR40. As to the kind of experiment: FLIPR assay, agonist-induced calcium mobilization in GPR40/CHO NFAT BLA cells. The protocol: as §1
FLIPR (Fluorimetric Imaging Plate Reader, Molecular Devices) assays were performed to measure agonist-induced calcium mobilization of the stable clones. For the FLIPR assay, one day before assay, GPR40/CHO NFAT BLA cells were seeded into black-wall-clear-bottom 384-well plates (Costar) at 1.4×10e4 cells/20 μL medium/well. The cells were incubated with 20 μl/well of the assay buffer (HBSS, 0.1% BSA, 20 mM HEPES, 2.5 mM probenecid, pH 7.4) containing 8 μM fluo-4, AM, 0.08% pluronic acid at room temperature for 100 minutes. Fluorescence output was measured using FLIPR. Compounds were dissolved in DMSO and diluted to desired concentrations with assay buffer. 13.3 μL/well of compound solution was added.

The record followed here is patent US10059667B2, “Antidiabetic compounds” (MERCK SHARP & DOHME CORP., priority 2014, dated 2018).

pEC50: −log10 of the molar value.

Usually EC50 stands for the midpoint of the concentration-response curve. Low readings indicate a more potent agent, high ones a less potent agent. One may read the pEC50 as −log10 of the EC50, conventionally taken in molar units.

T1 sequence (O14842 whole entry): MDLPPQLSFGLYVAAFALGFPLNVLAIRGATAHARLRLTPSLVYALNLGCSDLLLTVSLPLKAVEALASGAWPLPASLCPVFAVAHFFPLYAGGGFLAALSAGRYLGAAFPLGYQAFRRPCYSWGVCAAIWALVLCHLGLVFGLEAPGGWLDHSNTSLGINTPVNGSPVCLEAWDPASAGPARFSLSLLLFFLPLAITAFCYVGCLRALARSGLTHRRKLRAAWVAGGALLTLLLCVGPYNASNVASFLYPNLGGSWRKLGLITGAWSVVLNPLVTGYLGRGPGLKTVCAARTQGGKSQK

In turn, `COc1cc(C2CC(COc3cccc([C@H](C4CC4)[C@H](C)C(=O)O)c3)C2)c(F)cn1` (single isomer, unassigned) [Example 90] returned an EC50 in test [1] of 96 nM. That is a double-digit nanomolar value.
As to `COc1cc(C2CC(COc3cccc([C@H](C4CC4)[C@H](C)C(=O)O)c3)C2)c(F)cn1` (single isomer, unassigned) [Example 91], the EC50 in test [1] was 7.4 nM.
Take `COc1cc(C2CC(COc3cccc([C@H](C4CC4)[C@H](C)C(=O)O)c3)C2)c(F)cn1` (stereo partly shown) [Example 87]: the figures for the EC50 in test [2] and in test [1] were 23 nM and 13 nM, respectively.
The molecule `C[C@H](C(=O)O)[C@H](c1cccc(O[C@@H]2CCCN(Cc3cc(C(F)(F)F)ccc3C(F)(F)F)C2)c1)C1CC1` [Example 7, (2S,3R)-3-(3-(((R)-1-(2,5-bis(trifluoromethyl)benzyl)piperidin-3-yl)oxy)phenyl)-3-cyclopropyl-2-methylpropanoic acid] came in with a 50% effective concentration (EC50) in test [2] of 89 nM. Besides, the pEC50 in test [3] is 8.70.
The molecule `CC1(COc2cccc([C@@H](CC(=O)O)C3CC3)c2)CCN(Cc2cc(C(F)(F)F)ccc2C(F)(F)F)C1` (stereo partly shown) [Example 43] came in with an EC50 in test [2] of 952 nM. Also, the negative-log EC50 (pEC50) in test [3] is 6.64.
`C[C@H](C(=O)O)[C@H](c1cccc(OCC2CCN(Cc3cc(C(F)(F)F)ccc3C(F)(F)F)CC2)c1)C1CC1` [Example 31] gave an EC50 in test [2] of 77 nM. Further, the pEC50 in test [3] is 9.00.
Turning to `COc1ccc(F)cc1CN1CCC(Oc2cccc([C@@H](CC(=O)O)C3CC3)c2)C1` (stereo partly drawn) [Example 12, (3S)-3-Cyclopropyl-3-(3-((1-(5-fluoro-2-methoxybenzyl)pyrrolidin-3-yl)oxy)phenyl)propanoic acid], it took 4660 nM to reach a half-maximal effect in test [2] (EC50). Moreover, the pEC50 in test [3] is 6.95.
For `C[C@H](C(=O)O)[C@H](c1cccc(OCC2CCN(Cc3cc(C(F)(F)F)ccc3C(F)(F)F)C2)c1)C1CC1` (stereo partly shown) [Example 34], in test [2], the EC50 is 273 nM. In test [3], the pEC50 is 8.00.
On the same counts, the results for `O=C(O)C[C@H](c1cccc(OCC2CCN(c3cc(C(F)(F)F)ccc3C(F)(F)F)C2)c1)C1CC1` (stereo partly drawn) [Example 13, (3S)-3-(3-((1-(2,5-Bis(trifluoromethyl)phenyl)pyrrolidin-3-yl)methoxy)phenyl)-3-cyclopropylpropanoic acid] are 1850 nM and 6.89.
On the same counts, the results for `CC(c1cc(C(F)(F)F)ccc1C1CC1)N1CC(COc2cccc([C@@H](CC(=O)O)C3CC3)c2)C1` (stereo partly shown) [Example 58] are 366 nM and 6.95.
Consider `CC(c1cc(C(F)(F)F)ccc1C(F)(F)F)N1CC(COc2cccc([C@@H](CC(=O)O)C3CC3)c2)C1` (stereo partly shown) [Example 54], for which a half-maximal effect in test [2] (EC50) was put at 27 nM. Also, the pEC50 in test [3] was 9.22.
The molecule `C[C@H](C(=O)O)[C@H](c1cccc(OCC2CN(c3cccc(C(F)(F)F)n3)C2)c1)C1CC1` [Example 30] displayed an EC50 in test [2] of 279 nM. For the same molecule, the pEC50 in test [3] is 7.48.
